For one experiment, the target named is T1, NMU2 F131L (Homo sapiens, UniProt Q9GZQ4, F131L).
T1 construct: HA signal peptide (N); expressed in transfected cells; host or cells: HEK 293F, transient transfection, PTT5 vector
Put plainly: IP accumulation assay, NMU2 mutant F131L. It is filed as cell-based. The settings on record: 10 μM R-PSOP. On the procedure:
(§1) NMU2 constructs of WT and mutants were constructed into PTT5 vector (Invitrogen), as mentioned above. HEK 293F cells were transiently transfected with WT or mutants with total of 2000 ng plasmid DNA using transfection reagent (PEI MAX 2000, Polysciences) and cultivated at 37 °C with 5% CO2. Cells were collected after 48-h transfection. IP accumulation was tested by IP-One Gq assay kit (Cisbio Bioassays, 62IPAPEJ) following the instruction manual. In general, cells were resuspended with 1× HBSS buffer containing 20 mM LiCl (stimulation buffer) and seeded into the white 384-well microplates (Proxi Plate^TM-384 Plus, PerkinElmer) with a density of 20,000 per well. Cells were preincubated with 10^−5 M R-PSOP (provided by Boehringer Ingelheim company, Germany) and gradient concentration from 10^−4 to 10^−11 M of NMU-25 or gradient concentration 10^−4 to 10^−11 M of NMU-25 alone in stimulation buffer at 37 °C for 90 min. The cryptate-labeled anti-IP1 monoclonal antibody and d2-labeled IP1 were diluted with lysis & detection buffer (1:20) and added to each well by 3 μl, respectively. The plates were incubated at room temperature for 60 minutes and then read in a Synerg^TM H1 microplate reader (BioTek) with excitation at 330 nm and emission at 620 and 665 nm. The IP1 production was calculated by a standard dose–response curve and analyzed by GraphPad Prism 8.0.

In the next experiment the target is T2, NMU2 E102A (Homo sapiens, UniProt Q9GZQ4, E102A).
T2 construct: HA signal peptide (N); expressed in transfected cells; host or cells: HEK 293F
T2 sequence (Q9GZQ4 whole entry E102A): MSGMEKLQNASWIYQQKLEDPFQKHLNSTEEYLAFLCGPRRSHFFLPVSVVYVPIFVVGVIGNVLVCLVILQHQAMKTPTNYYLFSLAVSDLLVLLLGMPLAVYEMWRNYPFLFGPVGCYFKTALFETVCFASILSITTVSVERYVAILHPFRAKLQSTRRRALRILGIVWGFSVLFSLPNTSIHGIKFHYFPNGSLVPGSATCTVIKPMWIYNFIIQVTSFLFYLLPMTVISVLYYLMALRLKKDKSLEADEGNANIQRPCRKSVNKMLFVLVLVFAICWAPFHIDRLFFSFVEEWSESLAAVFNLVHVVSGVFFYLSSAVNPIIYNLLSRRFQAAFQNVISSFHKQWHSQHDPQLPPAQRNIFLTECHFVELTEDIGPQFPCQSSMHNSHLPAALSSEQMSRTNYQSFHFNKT
In words: IP accumulation assay, NMU2 mutant E102A. It is filed as cell-based. The settings on record: 10 μM R-PSOP. On the procedure:
as §1

The target in experiment [1] is NMU2. The settings on record: cited from earlier work.
The target in another experiment is T3, NMU2 F177C (Homo sapiens, UniProt Q9GZQ4, F177C).
T3 construct: HA signal peptide (N); expressed in transfected cells; host or cells: HEK 293F, transient transfection, PTT5 vector
T3 sequence (Q9GZQ4 whole entry F177C): as the sequence (Q9GZQ4 whole entry E102A) above, with A102E, F177C counted along it
In words: IP accumulation assay, NMU2 mutant F177C. It is filed as cell-based. To be noted: 10 μM R-PSOP. On the procedure:
as §1

In the next experiment the target is T4, NMU2 E127A (Homo sapiens, UniProt Q9GZQ4, E127A).
T4 construct: HA signal peptide (N); expressed in transfected cells; host or cells: HEK 293F
T4 sequence (Q9GZQ4 whole entry E127A): as the sequence (Q9GZQ4 whole entry E102A) above, with A102E, E127A counted along it
In words: IP accumulation assay, NMU2 mutant E127A. It is filed as cell-based. To be noted: 10 μM R-PSOP. Here is the method: as §1

Experiment [2] has as its target T5, NMU2 (Homo sapiens, UniProt Q9GZQ4).
T5 construct: HA signal peptide (N); expressed in transfected cells; host or cells: HEK 293F
In words: IP accumulation assay (IP-One Gq kit), WT NMU2. Format: cell-based. To be noted: 10 μM R-PSOP. Here is the method:
as §1

The target in another experiment is T6, NMU2 H285A (Homo sapiens, UniProt Q9GZQ4, H285A).
T6 construct: HA signal peptide (N); expressed in transfected cells; host or cells: HEK 293F, transient transfection, PTT5 vector
T6 sequence (Q9GZQ4 whole entry H285A): as the sequence (Q9GZQ4 whole entry E102A) above, with A102E, H285A counted along it
In words: IP accumulation assay, NMU2 mutant H285A. Format: cell-based. The settings on record: 10 μM R-PSOP. Here is the method:
as §1

Another experiment concerns the target T7, NMU2 F224A (Homo sapiens, UniProt Q9GZQ4, F224A).
T7 construct: HA signal peptide (N); expressed in transfected cells; host or cells: HEK 293F, transient transfection, PTT5 vector
In words: IP accumulation assay, NMU2 mutant F224A. Format: cell-based. To be noted: 10 μM R-PSOP. Here is the method:
as §1

T7 sequence (Q9GZQ4 whole entry F224A): as the sequence (Q9GZQ4 whole entry E102A) above, with A102E, F224A counted along it
T1 sequence (Q9GZQ4 whole entry F131L): as the sequence (Q9GZQ4 whole entry E102A) above, with A102E, F131L counted along it
T5 sequence (Q9GZQ4 whole entry): as the sequence (Q9GZQ4 whole entry E102A) above, with A102E counted along it

What is called Ki is a measure of affinity in units of concentration, obtained from inhibition or displacement. Consider `O=C(Nc1ccccc1)Nc1cnc2c(c1)C[C@@]1(CN3CCC1CC3)O2` [R-PSOP], for which the “Ratio EC50(NmU-25 + R-PSOP)/EC50(NmU-25)” value at NMU2 F131L stood at 3; at NMU2 E102A, 2; at NMU2 F177C, 8; at NMU2 E127A, 2; at NMU2 [2] it was 13; at NMU2 H285A it was 20. Also, the “Ratio EC50(NmU-25 + R-PSOP)/EC50(NmU-25)” value at NMU2 F224A is listed as 4. Moreover, the “Ratio change EC50 ratio (WT)/EC50 ratio (mutant)” value is on record as 4 fold on NMU2 F131L; 6.5 fold at NMU2 E102A; 1.6 fold on NMU2 F177C; 6.5 fold at NMU2 E127A; 1 fold at NMU2 [2]; 0.65 fold on NMU2 H285A. In addition, at NMU2 F224A, the “Ratio change EC50 ratio (WT)/EC50 ratio (mutant)” value is given as 3 fold. Also, the “antagonistic effect of R-PSOP (in words)” value at NMU2 F131L (IP accumulation) and at NMU2 F177C (IP accumulation) was “decreased the antagonistic effect of R-PSOP significantly” each time. The “antagonist inhibition effect of R-PSOP (in words)” value on NMU2 E102A (IP accumulation) and at NMU2 F224A (IP accumulation) was “abolished” in each case. Further, the Ki at NMU2 [1] is 0.052 µM.

Source of the values: article PMC9794833, “Ligand recognition and activation of neuromedin U receptor 2” (Nature Communications, 2022).
